Assay results published in patent US6352982B1, “4,1-benzoxazepines, their analogues, and their use as somatostatin agonists” (Takeda Chemical Industries, Ltd., priority 1997, dated 2002).
Counter-ions that a name gives are not always drawn. Each block holds one compound with its values, some of them ahead of it.

Legend:
Test in all cases: Binding inhibition of 125I-somatostatin, CHO cell membrane fraction
[1] = molecular target: T1, human somatostatin receptor SSTR3 (Homo sapiens, UniProt P32745); details: 125I-somatostatin binding, 25° C. for 60 minutes, read-out: Activities for human somatostatin receptor (IC50 value) SSTR3
T1 construct: expressed in transfected cells; host or cells: CHO (dhfr-) cells, strain SSTR3-15-19
Method: (§1) A human somatostatin receptor expression CHO cell strain, SSTR1-8-3, SSTR2-HS5-9, SSTR3-15-19, SSTR4-1-2 or SSTR5-32-4 (10^9), was suspended in a phosphate buffered saline containing 5mM of EDTA (PBS-EDTA). The suspension was centrifuged. To the cell pellet was added 10 ml of a homogenation buffer solution for cells (10 mM NaHCO3, 5 mM EDTA, pH=7.5). The mixture was homogenized by a Politron homogenizer and centrifuged at 400×g for 15 minutes. The supernatant obtained was farther centrifuged at 100,000×g for an hour to obtain a precipitate of the membrane fraction. The precipitate was suspended in 2 ml of a buffer solution for assay ([…], 0.1% of BSA (bovine serum albumin) and […], 1 μ/ml of pepstatin, 20 μg/ml of leupeptin, 10 μg/ml of phosphoramide, pH=7.5). The suspension was centrifuged at […] for an hour. The membrane fraction recovered as precipitate was suspended again in 20 ml of buffer solution for assay. The suspension was placed in tubes and stored at −80° C. The suspension was thawed when used, and used at every use.
(§2) The membrane fraction prepared in Example 1 was diluted with a buffer solution for assay to adjust the concentration to 3 μg/ml. The diluate was placed in tubes each in quantity of 173 μl. To this were simultaneously added 2 μl of a solution of a compound in DMSO and 25μl of a 200pM radioisotope-labeled somatostatin (^125I-somatostatin: Amersham) solution. For measurement of the maximum binding, a reaction mixture added with 2 μl of DMSO and 25μl of a 200pM ^125I-somatostatin solution was prepared. For measurement of non-specific binding, a reaction mixture added with 2 μl of a 100 μM somatostatin solution diluted in DMSO and 25 μl of a 200pM ^125I-somatostatin solution was prepared at the same time. The mixtures were allowed to react at 25° C. for 60 minutes. Then, the reaction mixture was filtered by aspiration using a GF/B glass fiber filter paper (Whatman) treated with polyethylenimine. After filtration, the radioactivity of 125I-somatostatin remaining on the filter paper was measured by a γ-counter.
(§3) The binding rate (%) of each compound was calculated by the formula: […]
(§4) (where PBM: Percent maximum Binding, B: radioactivity when a compound was added, Bo: maximum binding radioactivity, NSB: non-specific binding radioactivity). The binding rates were calculated by changing the concentrations of the compound to obtain the 50% inhibiting concentration of the compound (IC50 value) by the Hil l plots.
(§5) The activities (IC50 value, μM) of the compounds for each human somatostatin receptor obtained by the above method are shown in the following Table 5.

[2] = molecular target: T2, human somatostatin receptor SSTR1 (Homo sapiens, UniProt P30872); details: 125I-somatostatin binding, 25° C. for 60 minutes, read-out: Activities for human somatostatin receptor (IC50 value) SSTR1
T2 construct: expressed in transfected cells; host or cells: CHO (dhfr-) cells, strain SSTR1-8-3
Method: as §1, §2, §3, §4, §5

[3] = molecular target: T3, human somatostatin receptor SSTR4 (Homo sapiens, UniProt P31391); details: 125I-somatostatin binding, 25° C. for 60 minutes, read-out: Activities for human somatostatin receptor (IC50 value) SSTR4
T3 construct: expressed in transfected cells; host or cells: CHO (dhfr-) cells, strain SSTR4-1-2
Method: as §1, §2, §3, §4, §5

[4] = molecular target: T4, human somatostatin receptor SSTR2 (Homo sapiens, UniProt P30874); details: 125I-somatostatin binding, 25° C. for 60 minutes, read-out: Activities for human somatostatin receptor (IC50 value) SSTR2
T4 construct: expressed in transfected cells; host or cells: CHO (dhfr-) cells, strain SSTR2-HS5-9
Method: as §1, §2, §3, §4, §5

[5] = molecular target: T5, human somatostatin receptor SSTR5 (Homo sapiens, UniProt P35346); details: 125I-somatostatin binding, 25° C. for 60 minutes, read-out: Activities for human somatostatin receptor (IC50 value) SSTR5
T5 construct: expressed in transfected cells; host or cells: CHO (dhfr-) cells, strain SSTR5-3-2-4 (also printed SSTR5-32-4)
Method: as §1, §2, §3, §4, §5

T4 sequence (P30874 whole entry): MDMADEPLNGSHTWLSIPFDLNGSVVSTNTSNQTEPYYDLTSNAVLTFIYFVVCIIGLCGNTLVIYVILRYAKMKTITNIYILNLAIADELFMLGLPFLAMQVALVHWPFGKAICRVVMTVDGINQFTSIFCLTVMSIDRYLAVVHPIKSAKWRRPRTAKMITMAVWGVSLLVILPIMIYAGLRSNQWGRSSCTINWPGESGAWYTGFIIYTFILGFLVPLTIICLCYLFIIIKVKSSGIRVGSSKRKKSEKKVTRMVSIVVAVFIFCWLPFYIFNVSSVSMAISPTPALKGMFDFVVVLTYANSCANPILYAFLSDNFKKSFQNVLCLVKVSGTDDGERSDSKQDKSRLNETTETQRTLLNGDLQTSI
T1 sequence (P32745 whole entry): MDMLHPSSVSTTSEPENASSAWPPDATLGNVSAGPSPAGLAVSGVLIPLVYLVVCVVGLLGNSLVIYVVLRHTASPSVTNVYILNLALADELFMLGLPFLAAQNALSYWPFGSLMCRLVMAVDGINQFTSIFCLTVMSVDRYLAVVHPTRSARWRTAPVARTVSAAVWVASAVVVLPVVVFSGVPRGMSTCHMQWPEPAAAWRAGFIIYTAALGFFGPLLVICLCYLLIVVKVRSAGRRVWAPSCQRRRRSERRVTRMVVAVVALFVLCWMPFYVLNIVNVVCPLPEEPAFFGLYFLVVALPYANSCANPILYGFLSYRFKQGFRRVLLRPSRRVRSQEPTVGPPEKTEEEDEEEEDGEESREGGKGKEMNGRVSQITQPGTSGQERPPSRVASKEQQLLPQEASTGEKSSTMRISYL
T5 sequence (P35346 whole entry): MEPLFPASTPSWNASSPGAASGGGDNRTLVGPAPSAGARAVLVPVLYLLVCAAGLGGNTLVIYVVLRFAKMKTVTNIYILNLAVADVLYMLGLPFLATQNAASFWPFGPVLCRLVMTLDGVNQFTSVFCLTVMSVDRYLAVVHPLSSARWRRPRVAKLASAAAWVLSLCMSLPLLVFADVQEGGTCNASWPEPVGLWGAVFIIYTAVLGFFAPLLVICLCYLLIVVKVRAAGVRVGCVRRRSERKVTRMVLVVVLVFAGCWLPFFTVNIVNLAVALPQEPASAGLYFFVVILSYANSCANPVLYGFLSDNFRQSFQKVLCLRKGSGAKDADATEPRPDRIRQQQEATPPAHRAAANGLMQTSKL
T3 sequence (P31391 whole entry): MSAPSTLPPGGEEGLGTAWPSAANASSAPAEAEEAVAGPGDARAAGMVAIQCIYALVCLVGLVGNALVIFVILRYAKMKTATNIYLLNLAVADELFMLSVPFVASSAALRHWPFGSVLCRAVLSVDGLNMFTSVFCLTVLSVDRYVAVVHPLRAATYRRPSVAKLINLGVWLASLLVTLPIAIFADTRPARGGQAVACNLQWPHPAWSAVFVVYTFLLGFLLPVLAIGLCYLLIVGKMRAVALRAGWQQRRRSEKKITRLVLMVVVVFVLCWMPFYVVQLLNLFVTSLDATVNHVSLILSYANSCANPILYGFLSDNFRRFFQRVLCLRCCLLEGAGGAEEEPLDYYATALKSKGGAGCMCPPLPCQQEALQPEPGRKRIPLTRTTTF
T2 sequence (P30872 whole entry): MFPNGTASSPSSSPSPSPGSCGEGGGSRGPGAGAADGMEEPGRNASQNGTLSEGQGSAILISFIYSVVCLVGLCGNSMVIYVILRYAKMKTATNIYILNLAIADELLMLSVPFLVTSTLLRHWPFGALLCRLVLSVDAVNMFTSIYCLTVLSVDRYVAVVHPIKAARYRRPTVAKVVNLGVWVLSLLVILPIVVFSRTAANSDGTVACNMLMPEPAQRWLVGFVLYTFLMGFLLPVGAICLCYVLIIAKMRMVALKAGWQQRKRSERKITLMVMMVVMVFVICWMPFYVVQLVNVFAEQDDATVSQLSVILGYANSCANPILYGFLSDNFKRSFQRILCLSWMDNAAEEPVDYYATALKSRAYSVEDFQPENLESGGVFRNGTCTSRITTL

SMILES: NCc1ccc(C2OC(CC(=O)NCc3ccccc3F)C(=O)N(Cc3ccc(-c4ccccc4)cc3)c3ccc(Cl)cc32)cc1 (stereo not drawn) [Example 87, 3,5-Trans-N-(2-fluorobenzyl)-5-(4-aminomethylphenyl)-1-(4-biphenylmethyl)-7-chloro-2-oxo-1,2,3,5-tetrahydro-4,1-benzoxazepine-3-acetamide•monohydrochloride]
IC50 [1]: 20 nM | IC50 [2]: 800 nM | IC50 [3]: 300 nM | IC50 [4]: 800 nM | IC50 [5]: 1 nM

SMILES: COc1ccc(CN2C(=O)C(CC(=O)NCc3ccccc3F)OC(c3ccc(CN)s3)c3cc(Cl)ccc32)cc1 (stereo not drawn) [Example 91, 3,5-Trans-N-(2-fluorobenzyl)-5-(2-aminomethylthiophen-5-yl)-7-chloro-1-(4-methoxybenzyl)-2-oxo-1,2,3,5-tetrahydro-4,1-benzoxazepine-3-acetamide•monohydrochloride]
IC50 [1]: 40 nM | IC50 [2]: > 1000 nM | IC50 [3]: 1000 nM | IC50 [4]: > 1000 nM | IC50 [5]: 7 nM

SMILES: CC(C)(N)c1cccc(C2OC(CC(=O)NCc3ccccc3F)C(=O)N(Cc3ccc(-c4ccccc4)cc3)c3ccc(Cl)cc32)c1 (stereo not drawn) [Example 93, 3,5-Trans-N-(2-fluorobenzyl)-5-[3-[(1-amino-1-methyl)ethyl]phenyl]-1-(4-biphenylmethyl)-7-chloro-2-oxo-1,2,3,5-tetrahydro-4,1-benzoxazepine-3-acetamide•monohydrochloride]
IC50 [1]: 4 nM | IC50 [2]: 900 nM | IC50 [3]: 200 nM | IC50 [4]: 500 nM | IC50 [5]: 9 nM

Other lines, results leading:

IC50 [1]: 300 nM | IC50 [2]: 8000 nM | IC50 [3]: 4000 nM | IC50 [4]: 6000 nM | IC50 [5]: 7 nM
SMILES: CC(C)(C)CN1C(=O)[C@H](CC(=O)NCc2ccccc2F)O[C@@H](c2cccc(CN)c2)c2cc(Cl)ccc21 [Example 25, (3S,5S)-N-(2-fluorobenzyl)-5-(3-aminomethylphenyl)-7-chloro-1-neopentyl-2-oxo-1,2,3,5-tetrahydro-4,1-benzoxazepine-3-acetamide•monohydrochloride]

IC50 [1]: 7000 nM | IC50 [2]: 10000 nM | IC50 [3]: 4000 nM | IC50 [4]: > 10000 nM | IC50 [5]: 600 nM
SMILES: CC(C)(C)CN1C(=O)[C@@H](CC(=O)NCc2ccccc2F)O[C@H](c2cccc(CN)c2)c2cc(Cl)ccc21 [Example 26, (3R,5R)-N-(2-fluorobenzyl)-5-(3-aminomethylphenyl)-7-chloro-1-neopentyl-2-oxo-1,2,3,5-tetrahydro-4,1-benzoxazepine-3-acetamide•monohydrochloride]
